Reference: PubChem BioAssay AID248 (DTP/NCI, 2004)
Values joined by “and” are separate entries in the source; they are usually repeats but may differ in a detail not shown here. Identical values can stand only once. Inconclusive results and toxic doses are left out.

Tested on: L1210 leukemia ip in BDF1 mice, survival T/C
Assay: NCI In Vivo Anticancer Drug Screen. Data for tumor model L1210 Leukemia (intraperitoneal) in B6D2F1 (BDF1) mice
Conditions: endpoint: mean survival time, higher = longer survival
Summary of the method: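 Mice bearing the transplanted tumor received compound or vehicle. Survival of the treated group was divided by that of the vehicle-treated control group to give the ratio.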

[1] = dose: 50.0 mg/kg/injection, schedule: Q01DX001 (ip), vehicle: saline
[2] = dose: 100.0 mg/kg/injection, schedule: Q01DX001 (ip), vehicle: saline
[3] = dose: 200.0 mg/kg/injection, schedule: Q01DX001 (ip), vehicle: saline
[4] = dose: 100.0 mg/kg/injection, schedule: Q01DX009 (ip), vehicle: Klucel (hydroxypropylcellulose) (HPC)
[5] = dose: 200.0 mg/kg/injection, schedule: Q01DX009 (ip), vehicle: Klucel (hydroxypropylcellulose) (HPC)
[6] = dose: 400.0 mg/kg/injection, schedule: Q01DX009 (ip), vehicle: Klucel (hydroxypropylcellulose) (HPC)
[7] = dose: 50.0 mg/kg/injection, schedule: Q01DX001 (ip), vehicle: carboxymethylcellulose (CMC)
[8] = dose: 100.0 mg/kg/injection, schedule: Q01DX001 (ip), vehicle: carboxymethylcellulose (CMC)
[9] = dose: 200.0 mg/kg/injection, schedule: Q01DX001 (ip), vehicle: carboxymethylcellulose (CMC)
[10] = dose: 400.0 mg/kg/injection, schedule: Q01DX001 (ip), vehicle: saline
[11] = dose: 100.0 mg/kg/injection, schedule: Q01DX009 (ip), vehicle: saline with Tween-80
[12] = dose: 200.0 mg/kg/injection, schedule: Q01DX009 (ip), vehicle: saline with Tween-80
[13] = dose: 400.0 mg/kg/injection, schedule: Q01DX009 (ip), vehicle: saline with Tween-80
[14] = dose: 100.0 mg/kg/injection, schedule: Q04DX003 (ip), vehicle: Klucel (hydroxypropylcellulose) (HPC)
[15] = dose: 200.0 mg/kg/injection, schedule: Q04DX003 (ip), vehicle: Klucel (hydroxypropylcellulose) (HPC)
[16] = dose: 400.0 mg/kg/injection, schedule: Q04DX003 (ip), vehicle: Klucel (hydroxypropylcellulose) (HPC)
[17] = dose: 100.0 mg/kg/injection, schedule: Q01DX001 (ip), vehicle: Klucel (hydroxypropylcellulose) (HPC)
[18] = dose: 200.0 mg/kg/injection, schedule: Q01DX001 (ip), vehicle: Klucel (hydroxypropylcellulose) (HPC)
[19] = dose: 400.0 mg/kg/injection, schedule: Q01DX001 (ip), vehicle: Klucel (hydroxypropylcellulose) (HPC)

For `S=P(N1CCCCCC1)(N1CC1)N1CC1`, the T/C (dose: 25.0 mg/kg/injection, schedule: Q01DX Z (ip), vehicle: saline) was 110 % of control and 116 % of control, the T/C [1] was 108 % of control and the T/C (dose: 50.0 mg/kg/injection, schedule: Q01DX006 (iv), vehicle: saline) was 104 % of control. For the same compound, the T/C (dose: 50.0 mg/kg/injection, schedule: Q01DX Z (ip), vehicle: saline) was 96 % of control, the T/C (dose: 50.0 mg/kg/injection, schedule: Q01DX Z (oral), vehicle: saline) was 122 % of control and the T/C [2] was 113 % of control. The T/C (dose: 100.0 mg/kg/injection, schedule: Q01DX006 (iv), vehicle: saline) was 105 % of control, the T/C (dose: 100.0 mg/kg/injection, schedule: Q01DX Z (ip), vehicle: saline) was 170 % of control and the T/C (dose: 100.0 mg/kg/injection, schedule: Q01DX Z (oral), vehicle: saline) was 158 % of control. The T/C [3] was 105 % of control, the T/C (dose: 200.0 mg/kg/injection, schedule: Q01DX006 (iv), vehicle: saline) was 104 % of control and the T/C (dose: 250.0 mg/kg/injection, schedule: Q01DX001 (ip), vehicle: saline) was 112 % of control. The T/C (dose: 500.0 mg/kg/injection, schedule: Q01DX001 (ip), vehicle: saline) was 104 % of control.
In the case of `CCOC(=O)Nc1ccc(NC(C)=O)cc1`, the T/C [4] is reported as 104 % of control, the T/C [5] is reported as 98 % of control and the T/C [6] is reported as 93 % of control.
In the case of `CSCC1OC(n2cnc3c(N)ncnc32)C(O)C1O` (stereo unspecified), the T/C (dose: 50.0 mg/kg/injection, schedule: Q01DX001 (ip), vehicle: saline with Tween-80) is reported as 96 % of control, the T/C (dose: 100.0 mg/kg/injection, schedule: Q01DX001 (ip), vehicle: saline with Tween-80) is reported as 96 % of control and the T/C (dose: 200.0 mg/kg/injection, schedule: Q01DX001 (ip), vehicle: saline with Tween-80) is reported as 96 % of control.
With `FC(F)(F)c1cc(CN(CCCl)CCCl)cc(C(F)(F)F)c1` the T/C (dose: 2.4 mg/kg/injection, schedule: Q01DX009 (ip), vehicle: saline) was 97 % of control, the T/C (dose: 3.6 mg/kg/injection, schedule: Q01DX009 (ip), vehicle: saline) was 98 % of control and the T/C (dose: 8.2 mg/kg/injection, schedule: Q01DX009 (ip), vehicle: saline) was 108 % of control. The T/C (dose: 42.0 mg/kg/injection, schedule: Q01DX009 (ip), vehicle: other) was 97 % of control, the T/C (dose: 42.0 mg/kg/injection, schedule: Q01DX015 (ip), vehicle: carboxymethylcellulose (CMC)) was 104 % of control and the T/C [7] was 111 % of control. For the same compound, the T/C (dose: 72.0 mg/kg/injection, schedule: Q01DX009 (ip), vehicle: other) was 98 % of control, the T/C (dose: 72.0 mg/kg/injection, schedule: Q01DX015 (ip), vehicle: carboxymethylcellulose (CMC)) was 116 % of control and the T/C [8] was 108 % of control. The T/C (dose: 120.0 mg/kg/injection, schedule: Q01DX015 (ip), vehicle: carboxymethylcellulose (CMC)) was 116 % of control, the T/C (dose: 176.0 mg/kg/injection, schedule: Q01DX001 (ip), vehicle: other) was 100 % of control and the T/C (dose: 178.0 mg/kg/injection, schedule: Q01DX001 (ip), vehicle: saline) was 103 % of control. For the same compound, the T/C (dose: 178.0 mg/kg/injection, schedule: Q04DX003 (ip), vehicle: other) was 86 % of control, the T/C [9] was 111 % of control and the T/C (dose: 264.0 mg/kg/injection, schedule: Q01DX001 (ip), vehicle: other) was 107 % of control. The T/C (dose: 267.0 mg/kg/injection, schedule: Q01DX001 (ip), vehicle: saline) was 116 % of control, the T/C (dose: 400.0 mg/kg/injection, schedule: Q01DX001 (ip), vehicle: other) was 105 % of control and the T/C [10] was 121 % of control. For the same compound, the T/C (dose: 600.0 mg/kg/injection, schedule: Q01DX001 (ip), vehicle: saline) was 152 % of control.
`NC(C(=O)O)C(O)c1ccc2c(c1)OCO2` (stereo unspecified) was tested, and the T/C [11] was 103 % of control, the T/C [12] was 103 % of control and the T/C [13] was 113 % of control.
With `CC(=O)c1ccc(NC(=O)C(F)(F)F)cc1` the T/C [7] was 101 % of control, the T/C [8] was 95 % of control and the T/C [9] was 97 % of control. The T/C (dose: 400.0 mg/kg/injection, schedule: Q01DX001 (ip), vehicle: carboxymethylcellulose (CMC)) was 92 % of control.
In the case of `CC(C)c1ccc(C(c2c(O)c3ccccc3oc2=O)c2c(O)c3ccccc3oc2=O)cc1`, the T/C [4] is reported as 90 % of control, the T/C [14] is reported as 106 % of control and the T/C [5] is reported as 103 % of control. For the same compound, the T/C [15] was 100 % of control and the T/C [16] was 105 % of control.
In the case of `CCOc1ccc([N+](=O)[O-])cc1`, the T/C (dose: 100.0 mg/kg/injection, schedule: Q04DX002 (ip), vehicle: Klucel (hydroxypropylcellulose) (HPC)) is reported as 100 % of control, the T/C (dose: 200.0 mg/kg/injection, schedule: Q04DX002 (ip), vehicle: Klucel (hydroxypropylcellulose) (HPC)) is reported as 91 % of control and the T/C (dose: 400.0 mg/kg/injection, schedule: Q04DX002 (ip), vehicle: Klucel (hydroxypropylcellulose) (HPC)) is reported as 103 % of control.
`CCOc1ccc(NC(=O)Nc2ccccc2OC)cc1` was tested, and the T/C [4] was 97 % of control, the T/C [14] was 94 % of control and the T/C [5] was 95 % of control. For the same compound, the T/C [15] was 92 % of control, the T/C [6] was 101 % of control and the T/C [16] was 97 % of control.
With `CCCCCCCC(=O)N1CCCC(C)C1` (stereo unspecified) the T/C (dose: 100.0 mg/kg/injection, schedule: Q04DX002 (ip), vehicle: saline) was 96 % of control, the T/C (dose: 200.0 mg/kg/injection, schedule: Q04DX002 (ip), vehicle: saline) was 114 % of control and the T/C (dose: 400.0 mg/kg/injection, schedule: Q04DX002 (ip), vehicle: saline) was 114 % of control.
With `CCCCc1ccc(C(=O)O)nc1.[Cu+2]` the T/C (dose: 5.0 mg/kg/injection, schedule: Q01DX001 (ip), vehicle: saline) was 97 % of control, the T/C (dose: 10.0 mg/kg/injection, schedule: Q01DX001 (ip), vehicle: saline) was 105 % of control and the T/C (dose: 20.0 mg/kg/injection, schedule: Q01DX001 (ip), vehicle: saline) was 106 % of control.
For `CCN(CC)S(=O)(=O)/C=C\c1ccccc1`, the T/C (dose: 50.0 mg/kg/injection, schedule: Q04DX003 (ip), vehicle: Klucel (hydroxypropylcellulose) (HPC)) was 96 % of control, the T/C [17] was 98 % of control and the T/C [14] was 107 % of control. The T/C [18] was 107 % of control, the T/C [15] was 102 % of control and the T/C [19] was 102 % of control. The T/C [16] was 104 % of control.
With `CC[CH2][Pb]([CH2]CC)([CH2]CC)[O]C(C)=O` the T/C (dose: 6.25 mg/kg/injection, schedule: Q04DX003 (ip), vehicle: Klucel (hydroxypropylcellulose) (HPC)) was 100 % of control, the T/C (dose: 12.5 mg/kg/injection, schedule: Q04DX003 (ip), vehicle: Klucel (hydroxypropylcellulose) (HPC)) was 103 % of control and the T/C [1] was 94 % of control. The T/C [2] was 94 % of control.
In the case of `Nc1nc(N)nc(CCCCc2nc(N)nc(N)n2)n1`, the T/C [9] is reported as 90 % of control.
In the case of `CCOC(=O)C1(CC)CNCC(CC)(C(=O)OCC)C1=O` (stereo unspecified), the T/C [1] is reported as 103 % of control, the T/C [2] is reported as 104 % of control and the T/C [3] is reported as 101 % of control. The T/C [10] was 97 % of control.
`Cc1ccc(NC(=S)N2CCCCC2)cc1C` was tested, and the T/C [4] was 92 % of control, the T/C [5] was 93 % of control and the T/C [6] was 101 % of control.
With `CONCC(=O)c1ccc(SC)cc1` the T/C [2] was 106 % of control, the T/C [3] was 97 % of control and the T/C [10] was 100 % of control.
In the case of `O=c1[nH]c2sccc2c(=O)n1O`, the T/C [17] is reported as 106 % of control, the T/C [18] is reported as 97 % of control and the T/C [19] is reported as 97 % of control.
For `C=C(NC(=O)Cc1ccccc1)C(=O)OC`, the T/C [11] was 92 % of control, the T/C (dose: 100.0 mg/kg/injection, schedule: Q04DX003 (ip), vehicle: saline with Tween-80) was 102 % of control and the T/C [12] was 95 % of control. For the same compound, the T/C (dose: 200.0 mg/kg/injection, schedule: Q04DX003 (ip), vehicle: saline with Tween-80) was 95 % of control, the T/C [13] was 95 % of control and the T/C (dose: 400.0 mg/kg/injection, schedule: Q04DX003 (ip), vehicle: saline with Tween-80) was 91 % of control.
With `NN1CCN(N)C(=O)C1=O` the T/C (dose: 100.0 mg/kg/injection, schedule: Q04DX003 (ip), vehicle: saline) was 105 % of control, the T/C (dose: 200.0 mg/kg/injection, schedule: Q04DX003 (ip), vehicle: saline) was 108 % of control and the T/C (dose: 400.0 mg/kg/injection, schedule: Q04DX003 (ip), vehicle: saline) was 97 % of control.
`c1ccc(-c2cc3ccccc3[nH]2)cc1` was tested, and the T/C [17] was 98 % of control, the T/C [18] was 96 % of control and the T/C [5] was 94 % of control. The T/C [19] was 102 % of control.
With `CC(C)(C)C(=O)C/C=N/Nc1ccc([N+](=O)[O-])cc1[N+](=O)[O-]` the T/C [2] was 96 % of control, the T/C [3] was 106 % of control and the T/C [10] was 100 % of control.
